From US9458181B2, “Cathepsin cysteine protease inhibitors” (Merck Sharp & Dohme Corp., priority 2013, dated 2016)
Each block holds one molecule with its values, some of them ahead of it.

How the values were obtained:
[1] = target: human cathepsin K (UniProt P43236); experiment: Cathepsin K Assay (hrbCat K); format: biochemical; conditions: human cathepsin K 0.4 nM, Z-Leu-Arg-AMC 8 μM, pH 5.5, 15 min preincubation; read-out: hrbCat K IP
Procedure, shortened: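 Human cathepsin K (0.4 nM) in pH 5.5 MES buffer with EDTA, DTT and 10% DMSO was preincubated 15 min at room temperature with compound from a ⅓ dilution series (500-0.025 μM DMSO stocks). Z-Leu-Arg-AMC (8 μM) was then added, and AMC release was followed fluorometrically (Ex 360/Em 460 nm) for 30 min; inhibition was fitted to a dose-response model.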

[2] = target: T1, human cathepsin F (Homo sapiens, UniProt Q9UBX1); experiment: Cathepsin F assay (hCat F); format: biochemical; conditions: human cathepsin F 10 nM, Z-Phe-Arg-AMC 8 μM, pH 5.5, 15 min preincubation; read-out: hCat F IP
T1 sequence (Q9UBX1 271-484): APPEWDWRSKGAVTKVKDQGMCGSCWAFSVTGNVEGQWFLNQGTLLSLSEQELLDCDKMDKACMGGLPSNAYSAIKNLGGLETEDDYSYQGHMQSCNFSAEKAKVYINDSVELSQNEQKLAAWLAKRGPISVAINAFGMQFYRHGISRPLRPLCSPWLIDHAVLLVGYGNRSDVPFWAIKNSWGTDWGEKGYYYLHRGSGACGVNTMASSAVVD
Procedure, shortened: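 Human cathepsin F (10 nM) in 50 mM MES pH 5.5, 2.5 mM EDTA, 2.5 mM DTT, 10% DMSO was preincubated 15 min at RT with compounds from a ⅓ DMSO dilution series (500–0.025 μM stocks). Z-Phe-Arg-AMC was added (8 μM as added), and AMC release was read by fluorescence (360/460 nm) for 20 min. Percent inhibition was fitted to a dose-response model.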

SMILES: N#CC1(NC(=O)[C@@H]2C[C@@H](F)CC[C@H]2c2oc(C(F)(F)C(F)(F)F)nc2-c2ccc(N3CCS(=O)(=O)CC3)cc2)CC1 [Example 42, (1R,2R,5S)-N-(1-cyanocyclopropyl)-2-(4-(4-(1,1-dioxidothiomorpholino)phenyl)-2-(perfluoroethyl)oxazol-5-yl)-5-fluorocyclohexane-carboxamide]
IC50 [1]: 2.41 nM
IC50 [2]: 1860 nM

SMILES: N#CC1(NC(=O)[C@@H]2C[C@@H](F)CC[C@H]2c2oc(-c3ccc(F)cc3F)nc2-c2ccc(N3CCS(=O)(=O)CC3)cc2)CC1 [Example 41, (1R,2R,5S)-N-(1-cyanocyclopropyl)-2-(2-(2,4-difluorophenyl)-4-(4-(1,1-dioxidothiomorpholino)phenyl)oxazol-5-yl)-5-fluorocyclohexane-carboxamide]
IC50 [1]: 1.41 nM
IC50 [2]: 2190 nM

SMILES: N#CC1(NC(=O)[C@@H]2CCCC[C@H]2c2oc(-c3ncccn3)nc2-c2ccc(N3CCS(=O)(=O)CC3)cc2)CC1 [Example 90, (1R,2R)-N-(1-cyanocyclopropyl)-2-(4-(4-(1,1-dioxidothiomorpholino)phenyl)-2-(pyrimidin-2-yl)oxazol-5-yl)cyclohexanecarboxamide]
IC50 [1]: 7.28 nM
IC50 [2]: ≥ 10000 nM

SMILES: N#CC1(NC(=O)[C@@H]2CCCC[C@H]2c2oc(-c3ccc(C(F)(F)F)nc3)nc2-c2ccc(N3CCS(=O)(=O)CC3)cc2)CC1 [Example 40, (1R,2R)-N-(1-cyanocyclopropyl)-2-(4-(4-(1,1 dioxidothiomorpholino)phenyl)-2-(6-(trifluoromethyl)pyridin-3-yl)oxazol-5-yl)cyclohexane carboxamide]
IC50 [1]: 1.42 nM
IC50 [2]: 2220 nM

SMILES: N#CC1(NC(=O)[C@@H]2CCC(F)(F)C[C@H]2c2oc(-c3ccc(F)cc3)nc2-c2ccc(N3CCS(=O)(=O)CC3)cc2)CC1 [Example 139, (1R,2R)-N-(1-cyanocyclopropyl)-2-(4-(4-(1,1-dioxidothiomorpholino)phenyl)-2-(4-fluorophenyl)oxazol-5-yl)-4,4-difluorocyclohexane-carboxamide]
IC50 [1]: 3.84 nM
IC50 [2]: 2420 nM

SMILES: N#CC1(NC(=O)[C@@H]2CCCC[C@H]2c2oc(-c3ccc(C(F)(F)F)cn3)nc2-c2ccc(N3CCS(=O)(=O)CC3)cc2)CC1 [Example 81, (1R,2R)-N-(1-cyanocyclopropyl)-2-(4-(4-(1,1-dioxidothiomorpholino)phenyl)-2-(5-(trifluoromethyl)pyridin-2-yl)oxazol-5-yl)cyclohexanecarboxamide]
IC50 [1]: 2.99 nM
IC50 [2]: 3060 nM

SMILES: N#CC1(NC(=O)[C@@H]2CCCC[C@H]2c2oc(Cc3ccccc3)nc2-c2ccc(N3CCS(=O)(=O)CC3)cc2)CC1 [Example 50, (1R,2R)-2-(2-benzyl-4-(4-(1,1-dioxidothiomorpholino)phenyl)oxazol-5-yl)-N-(1-cyanocyclopropyl) cyclohexanecarboxamide]
IC50 [1]: 1.6 nM
IC50 [2]: 698 nM

SMILES: CC(C)(O)C(C#N)NC(=O)[C@@H]1CCCC[C@H]1c1oc(-c2ccc(F)cc2)nc1-c1ccc(N2CCS(=O)(=O)CC2)cc1 (single isomer, unassigned) [Example 159, (1R,2R)-N-((S or R)-1-cyano-2-hydroxy-2-methylpropyl)-2-(4-(4-(1,1-dioxidothiomorpholino)phenyl)-2-(4-fluorophenyl)oxazol-5-yl)cyclohexanecarboxamide]
IC50 [1]: 43.2 nM
IC50 [2]: 6860 nM

Molecules with a lower IC50 [1], results first:

IC50 [1]: 0.54 nM
IC50 [2]: 14 nM
SMILES: N#CC(CC(F)(F)F)NC(=O)[C@@H]1CC(F)(F)CC[C@H]1c1oc(C(F)(F)C(F)(F)F)nc1-c1ccc(C(=O)N2CCOCC2)cc1 (single isomer, unassigned) [Example 143, (1R,2R)-N-((S or R)-1-cyano-3,3,3-trifluoropropyl)-5,5-difluoro-2-(4-(4-(morpholine-4-carbonyl)phenyl)-2-(perfluoroethyl)oxazol-5-yl)cyclohexanecarboxamide]

IC50 [1]: 0.67 nM
IC50 [2]: 229 nM
SMILES: N#CCNC(=O)[C@@H]1CCCC[C@H]1c1oc(-c2ccc(F)cc2F)nc1-c1ccc(N2CCS(=O)(=O)CC2)cc1 [Example 44, (1R,2R)-N-(cyanomethyl)-2-(2-(2,4-difluorophenyl)-4-(4-(1,1-dioxidothiomorpholino)phenyl)oxazol-5-yl)cyclohexanecarboxamide]

IC50 [1]: 0.57 nM
IC50 [2]: 619 nM
SMILES: N#CC1(NC(=O)[C@@H]2CCCC[C@H]2c2oc(-c3ccccc3F)nc2-c2ccc(N3CCS(=O)(=O)CC3)cc2)CC1 [Example 67, (1R,2R)-N-(1-cyanocyclopropyl)-2-(4-(4-(1,1-dioxidothiomorpholino)phenyl)-2-(2-fluorophenyl)oxazol-5-yl)cyclohexanecarboxamide]

IC50 [1]: 0.92 nM
IC50 [2]: 803 nM
SMILES: N#CC1(NC(=O)[C@@H]2CCCC[C@H]2c2oc(-c3cncc(N4CCS(=O)(=O)CC4)c3)nc2-c2ccc(N3CCS(=O)(=O)CC3)cc2)CC1 [Example 92, (1R,2R)-N-(1-cyanocyclopropyl)-2-(4-(4-(1,1-dioxidothiomorpholino)phenyl)-2-(5-(1,1-dioxidothiomorpholino)pyridin-3-yl)oxazol-5-yl)cyclohexanecarboxamide]

IC50 [1]: 0.73 nM
IC50 [2]: 37 nM
SMILES: N#C[C@@H](NC(=O)[C@@H]1CCCC[C@H]1c1oc(-c2ccc(F)cc2)nc1-c1ccc(N2CCS(=O)(=O)CC2)cc1)C1CC1 [Example 155, (1R,2R)-N-((S)-cyano(cyclopropyl)methyl)-2-(4-(4-(1,1-dioxidothiomorpholino)phenyl)-2-(4-fluorophenyl)oxazol-5-yl)cyclohexanecarboxamide]

IC50 [1]: 1.04 nM
IC50 [2]: 502 nM
SMILES: N#CC1(NC(=O)[C@@H]2CCCC[C@H]2c2oc(-c3cccc(OC(F)F)c3)nc2-c2ccc(N3CCS(=O)(=O)CC3)cc2)CC1 [Example 68, (1R,2R)-N-(1-cyanocyclopropyl)-2-(2-(3-(difluoromethoxy)phenyl)-4-(4-(1,1-dioxidothiomorpholino)phenyl)oxazol-5-yl)cyclohexanecarboxamide]

IC50 [1]: 0.72 nM
IC50 [2]: 353 nM
SMILES: N#CC1(NC(=O)[C@@H]2CCCC[C@H]2c2oc(-c3ccc(F)cc3Cl)nc2-c2ccc(N3CCS(=O)(=O)CC3)cc2)CC1 [Example 37, (1R,2R)-2-(2-(2-chloro-4-fluorophenyl)-4-(4-(1,1-dioxidothiomorpholino)phenyl)oxazol-5-yl)-N-(1-cyanocyclopropyl) cyclohexanecarboxamide]

IC50 [1]: 1.04 nM
IC50 [2]: 306 nM
SMILES: N#CC1(NC(=O)[C@@H]2CC(F)(F)CC[C@H]2c2oc(C(F)(F)C(F)(F)F)nc2-c2ccc(C(=O)N3CCOCC3)cc2)CC1 [Example 119, (1R,2R)-N-(1-cyanocyclopropyl)-5,5-difluoro-2-(4-(4-(morpholine-4-carbonyl)phenyl)-2-(perfluoroethyl)oxazol-5-yl)cyclohexanecarboxamide]
